Measurements published in US20130065820A1, “SYNTHETIC MYOSTATIN PEPTIDE ANTAGONISTS” (COVITA LIMITED, priority 2009, published 2013).
Where “and” joins values, the source holds several entries; their conditions need not be identical. Identical values can stand only once. Bridge positions count the residues as written; N and C are the ends. Ends that are not written are not given here.

What was measured:
myoblasts = experiment: Myoblast proliferation / biological activity of synthetic peptides with other cysteine connectivities (results not shown); format: cell-based; details: synthetic peptides of stated connectivity or truncation
Description: (§1) Bovine C2C12 myoblasts were grown in Dulbecco's modified eagle medium according to the standard techniques (Thomas et al, 2000). The myoblast proliferation assay was carried out in uncoated 96-well microtitre plates. C2C12 cultures were seeded at 1000 cells/well. Following a 16-hour attachment period, test media containing varying concentrations of either the synthetic 310 peptide in the 2-3 conformation, the synthetic 310 peptide in the 1-4/2-3 conformation or the positive control (recombinant 310 peptide) were added and cells were incubated for a further 48 or 72 hour period. After the incubation period, proliferation was assessed using methylene blue photometric endpoint assay as previously described (Thomas et al, 2000).
A number of synthetic peptides were prepared having an amino acid sequence corresponding to amino acids at positions 267-310 and 282-310 of SEQ ID NO:1. Of the 267-310 peptides a number of different connectivities were prepared as follows: • 1. 1-3/2-4 • 2. 1-2/3-4 • 3. 1-2 • 4. 1-3 • 5. 1-4 • 6. 1-2, 3-4/1-3, 2-4 • 7. 2-4 • 8. 3-4 • 9. 1-4/2-3 • 10. Linear (no forced connectivity)
The peptides were synthesized as described above in example 1. Different cysteine residues were protected and deprotected to produce the specified connectivities and would be understood by a skilled worker.

C2C12 myoblasts [1] = experiment: Myoblast proliferation assay (methylene blue photometric endpoint); format: cell-based, Mouse; details: for % proliferation above control: control (media + buffer) = 100%; for myoblast proliferation / biological activity (in words): 48 or 72 hours, compared to control (media and buffer only)
Description: A synthetic peptide of the invention, or a functional variant or fragment thereof has the biological function of antagonising myostatin activity. To determine whether a synthetic peptide of the invention, or functional variant or fragment thereof, is able to antagonise myostatin activity, such activity can be tested by growing myoblasts in the presence or absence (control) of a candidate synthetic peptide of the invention. […] A suitable cell line could be murine C2Cl2 myoblasts (ATCC NO: CRL-1772), however, it will be appreciated that any suitable myoblast cell line could be used, such as primary ovine, bovine, porcine or human myoblasts.
as §1, with “The” for “Bovine C2C12 myoblasts were grown in Dulbecco's modified eagle medium according to the standard techniques (Thomas et al, 2000). The”

C2C12 myoblasts [2] = experiment: Nuclei count per well by DAPI staining of the myoblast proliferation plates; format: cell-based, Bovine
Description: as §1
To confirm that the increased proliferation observed in example 1 was not simply false positive results, the plates were used to count nuclei.
Cells in the wells of interest were stained with DAPI (4′-6-diamidino-2-phenylindole) which is a fluorescent dye that stains nuclei blue. DAPI was used at a concentration of […] in PBS and cells stained for 5 mins at room temperature, then washed once with PBS buffer. Images of each well were then captured via a Leica DMI 6000 microscope and an image analysis program (Image-Pro plus) utilised to count the nuclei. For each treatment (recombinant 310 positive control, and synthetic peptides (2-3) and (1-4/2-3) at 10 and 20 µg/ml), 3-6 wells per treatment were analysed.

myostatin = details: recombinant peptide, WO 2008/016314; cited from earlier work

For “1-2: Synthetic 267-310 myostatin peptide with 1-2 cysteine connectivity (DFGLDCDEHSTESRCCRYPLTVDFEAFGWDWIIAPKRYKANYCS; disulfide 6-15; not fully specified (bridges); cysteine pairing not given here; UniProt O18836 267-310, looked up, fragment)”, the “biological activity / enhanced myoblast proliferation (in words)” value (myoblasts) was “not biologically active”.

With “1-4: Synthetic 267-310 myostatin peptide with 1-4 cysteine connectivity (DFGLDCDEHSTESRCCRYPLTVDFEAFGWDWIIAPKRYKANYCS; disulfide 6-43; not fully specified (bridges); cysteine pairing not given here; UniProt O18836 267-310, looked up, fragment)” the “biological activity / enhanced myoblast proliferation (in words)” value (myoblasts) was “not biologically active”.

For “synthetic peptide having a truncation position at 281: Synthetic mature myostatin peptide C-terminally truncated at position 281 (DFGLDCDEHSTESRC; Growth/differentiation factor 8; UniProt O18836 267-281, looked up, fragment)”, the “biological activity / enhanced myoblast proliferation (in words)” value (myoblasts) was “not biologically active”.

In the case of “310 positive control: Recombinant peptide of amino acids 267-310 of bovine myostatin with N terminal and C terminal tags, positive control (DFGLDCDEHSTESRCCRYPLTVDFEAFGWDWIIAPKRYKANYCS; cysteine pairing not given here; also: N- and C-terminal tags; UniProt O18836 267-310, looked up, fragment) [reference compound]”, the “% proliferation above control” value (C2C12 myoblasts [1]; 10 μg, 48 h) is reported as 113.58% and 111.76%, the “% proliferation above control” value (C2C12 myoblasts [1]; 10 μg, 72 h) is reported as 122.97% and 119.64% and the “myoblast proliferation / biological activity (in words)” value (C2C12 myoblasts [1]) is reported as “significantly enhanced myoblast proliferation”. The “Number of nuclei per well” value (C2C12 myoblasts [2]; 10 μg, 48 h) was 847.1 and 816.7 and the “Number of nuclei per well” value (C2C12 myoblasts [2]; 10 μg, 72 h) was 2429.3 and 2229.2.

With “3-4: Synthetic 267-310 myostatin peptide with 3-4 cysteine connectivity (DFGLDCDEHSTESRCCRYPLTVDFEAFGWDWIIAPKRYKANYCS; disulfide 16-43; not fully specified (bridges); cysteine pairing not given here; UniProt O18836 267-310, looked up, fragment)” the “biological activity / enhanced myoblast proliferation (in words)” value (myoblasts) was “not biologically active”.

With “Synthetic 310 (2-3/1-4 connectivity): Synthetic peptide of amino acids 267-310 of bovine myostatin (SEQ ID NO:4) with forced 2-3/1-4 disulfide connectivity (DFGLDCDEHSTESRCCRYPLTVDFEAFGWDWIIAPKRYKANYCS; disulfide 15-16, 6-43)” the “% proliferation above control” value (C2C12 myoblasts [1]; 0.1 μg, 48 h) was 100.17%, the “% proliferation above control” value (C2C12 myoblasts [1]; 0.1 μg, 72 h) was 100.54% and the “% proliferation above control” value (C2C12 myoblasts [1]; 1.0 μg, 48 h) was 100.07%. For the same substance, the “% proliferation above control” value (C2C12 myoblasts [1]; 1.0 μg, 72 h) was 102.60%, the “% proliferation above control” value (C2C12 myoblasts [1]; 10 μg, 48 h) was 108.58% and the “% proliferation above control” value (C2C12 myoblasts [1]; 10 μg, 72 h) was 107.51%. For the same substance, the “% proliferation above control” value (C2C12 myoblasts [1]; 20.0 μg, 48 h) was 106.87%, the “% proliferation above control” value (C2C12 myoblasts [1]; 20.0 μg, 72 h) was 110.47% and the “myoblast proliferation / biological activity (in words)” value (C2C12 myoblasts [1]) was “slightly more biological activity”. The “Number of nuclei per well” value (C2C12 myoblasts [2]; 10 μg, 48 h) was 810.2, the “Number of nuclei per well” value (C2C12 myoblasts [2]; 10 μg, 72 h) was 2328.2 and the “Number of nuclei per well” value (C2C12 myoblasts [2]; 20.0 μg, 48 h) was 739.3. The “Number of nuclei per well” value (C2C12 myoblasts [2]; 20.0 μg, 72 h) was 2172.0, the “increase in cell numbers (in words)” value (C2C12 myoblasts [2]; 72 h) was “significant increases in cell numbers” and the “biological activity / enhanced myoblast proliferation (in words)” value (myoblasts) was “biologically active”.

With “2-4: Synthetic 267-310 myostatin peptide with 2-4 cysteine connectivity (DFGLDCDEHSTESRCCRYPLTVDFEAFGWDWIIAPKRYKANYCS; disulfide 15-43; not fully specified (bridges); cysteine pairing not given here; UniProt O18836 267-310, looked up, fragment)” the “biological activity / enhanced myoblast proliferation (in words)” value (myoblasts) was “not biologically active”.

With “1-3: Synthetic 267-310 myostatin peptide with 1-3 cysteine connectivity (DFGLDCDEHSTESRCCRYPLTVDFEAFGWDWIIAPKRYKANYCS; disulfide 6-16; not fully specified (bridges); cysteine pairing not given here; UniProt O18836 267-310, looked up, fragment)” the “biological activity / enhanced myoblast proliferation (in words)” value (myoblasts) was “not biologically active”.

With “Synthetic 310 (2-3 connectivity): Synthetic peptide of amino acids 267-310 of bovine myostatin with forced disulfide between cysteines 2 and 3 (281, 282) (DFGLDCDEHSTESRCCRYPLTVDFEAFGWDWIIAPKRYKANYCS; disulfide 15-16; not fully specified (bridges); cysteine pairing not given here; UniProt O18836 267-310, looked up, fragment)” the “% proliferation above control” value (C2C12 myoblasts [1]; 0.1 μg, 48 h) was 101.66%, the “% proliferation above control” value (C2C12 myoblasts [1]; 0.1 μg, 72 h) was 101.06% and the “% proliferation above control” value (C2C12 myoblasts [1]; 1.0 μg, 48 h) was 97.70%. The “% proliferation above control” value (C2C12 myoblasts [1]; 1.0 μg, 72 h) was 102.00%, the “% proliferation above control” value (C2C12 myoblasts [1]; 10 μg, 48 h) was 104.18% and the “% proliferation above control” value (C2C12 myoblasts [1]; 10 μg, 72 h) was 103.83%. The “% proliferation above control” value (C2C12 myoblasts [1]; 20.0 μg, 48 h) was 105.00%, the “% proliferation above control” value (C2C12 myoblasts [1]; 20.0 μg, 72 h) was 105.07% and the “myoblast proliferation / biological activity (in words)” value (C2C12 myoblasts [1]) was “biologically active”. The “Number of nuclei per well” value (C2C12 myoblasts [2]; 10 μg, 48 h) was 810.5, the “Number of nuclei per well” value (C2C12 myoblasts [2]; 10 μg, 72 h) was 1906.1 and the “Number of nuclei per well” value (C2C12 myoblasts [2]; 20.0 μg, 48 h) was 808.9. For the same substance, the “Number of nuclei per well” value (C2C12 myoblasts [2]; 20.0 μg, 72 h) was 1903.6, the “increase in cell numbers (in words)” value (C2C12 myoblasts [2]; 48 h) was “significant increases in cell numbers” and the “increase in cell numbers (in words)” value (C2C12 myoblasts [2]; 72 h) was “significant increases in cell numbers”.

In the case of “mature recombinant myostatin peptide C-terminally truncated at position 281: Recombinant mature myostatin peptide truncated at 281, two cysteines (1-2 connectivity), from WO 2008/016314 (DFGLDCDEHSTESRC; disulfide 6-15; UniProt O18836 267-281, looked up, fragment)”, the “biological activity (in words)” value (myostatin) is given as “biologically active”.

With “linear 310 synthetic peptide: Synthetic 267-310 myostatin peptide, linear, no forced connectivity (DFGLDCDEHSTESRCCRYPLTVDFEAFGWDWIIAPKRYKANYCS; Growth/differentiation factor 8 linear; UniProt O18836 267-310, looked up, fragment)” the “biological activity / enhanced myoblast proliferation (in words)” value (myoblasts) was “showed enhanced myoblast proliferation”.

With “310 synthetic peptide that was N-terminally truncated at amino acid position 282: Synthetic peptide of amino acids 282-310 of SEQ ID NO:1, only cysteines 3 and 4 (CRYPLTVDFEAFGWDWIIAPKRYKANYCS; only cysteines 3 and 4; listed as Homo sapiens)” the “biological activity / enhanced myoblast proliferation (in words)” value (myoblasts) was “not active”.
